Columns and labels:
sunburn = assay: In Vivo Evaluation: sunburn in a human subject after about six hours of intense sunlight, oral self-administration; settings: for relief of pain: oral self-administration, adult with severe sunburn, celecoxib 100 mg
Source text: 1. Subject: An adult, person of light complexion whose skin had not been substantially exposed to strong sunlight for approximately six months.
2. Protocol: The subject was exposed to intense sunlight at a swimming pool for approximately six hours.
3. […] At that time the subject self-administered an oral dose of acetaminophen (Extra Strength Tylenol®) to relieve the pain. […] Later in the evening the subject was unable to sleep due to the continued pain. At that time the subject self-administered a 100 mg dose of Celebrex® (celecoxib). […] Approximately twelve hours later the subject took a second dose of celecoxib to relieve the onset of discomfort due to the sunburn.

UV-B mediated injury = settings: cited from earlier work
[1] = tested on: UV radiation-induced tumor formation and UV-B mediated inflammatory response; settings: oral administration, cited from earlier work

Row | SMILES | time to almost complete relief of pain following administration (sunburn; 100 mg oral dose of Celebrex, adult with sunburn) [h] | relief of pain (sunburn) | healing of the burn (blistering, peeling of surface skin) (sunburn; two oral doses of celecoxib about twelve hours apart, subject's report) | cutaneous inflammatory response after exposure of skin to UV-B radiation (UV-B mediated injury; oral administration) | parameters of UV-B mediated injury (UV-B mediated injury; topical application) | tumor formation ([1]; animals chronically exposed to UV radiation) | acute UV-B mediated inflammatory response involving increased cell proliferation and edema ([1]; following acute or chronic exposure to UV radiation) | UV-B induced prostaglandin synthesis [1]
1 | Cc1ccc(-c2cc(C(F)(F)F)nn2-c2ccc(S(N)(=O)=O)cc2)cc1 [celecoxib, 4-[5-(4-methylphenyl)-3-(trifluoromethyl)-1H-pyrazol-1-yl]benzenesulfonamide] | ≤ 1 | almost complete relief of pain | rapid healing of the burn with no blistering or peeling of surface skin | failed to block the cutaneous inflammatory response | reduce many of the parameters of UV-B mediated injury | reduced tumor formation | failed to inhibit the acute UV-B mediated inflammatory response | block the UV-B induced prostaglandin synthesis
2 | CC(=O)Nc1ccc(O)cc1 [acetaminophen] |  | no relief in pain |  |  |  |  |  | 

Source: patent US20020009421A1, “Therapy following skin injury from exposure to ultraviolet radiation” (priority 2000, published 2002)
